The record followed here is a melting point compilation (Tetko et al.; mined from patent text by program, amines drawn as free bases though some values may be those of a salt).

For orientation: melting point means the temperature of the solid-liquid transition.

Bounds are passed on as bounds.

As to `O=C1NC(=O)C(=Cc2ccc(OCCN3C(=O)SC(Cc4ccccc4)C3=O)cc2)S1` (stereo not drawn), the melting point fell in the range of 145 to 147 °C.

As to `Fc1cccc(Cc2cncnc2N2CCCC2)c1`, the melting point was in the range of 51 to 54 °C.

In the case of `O=C(C=Cc1ccc(F)c(F)c1)OCCc1ccccc1`, the melting point fell in the range of 53 to 57 °C.

Regarding `CCCCCCc1cccc(-c2cn(C)cc(-c3ccccc3)c2=O)c1`, the melting point fell in the range of 93 to 95 °C.

Turning to `c1ccc(N=C2SCS2)nc1`, the melting point fell in the range of 98.7 to 99.7 °C.

The compound `C#Cc1ccc(C(O)C2C(c3ccccc3)CC(=O)N2C)s1` (stereo not drawn) registered a melting point of 187 °C.

`Cc1cc(-c2ccc(-c3ccc(F)cc3)cc2)n[nH]c1=O` displayed a melting point of 247 to 248 °C.

Turning to `N#CN=C(N)NCCCCNC(=O)[C@@H](Cc1ccccc1)NC(=O)CCCC(=O)O`, the melting point is 63 °C.

Compound `O=C1Nc2ccc(Cl)cc2C(OCC2CC2)(C(F)(F)F)CN1C1CC1` (stereo not drawn) gave a melting point of 154 to 155 °C.

Consider `O=[N+]([O-])c1ccc(OCCCCl)cc1`, for which the melting point is 37 to 39 °C.

The compound `Cn1c2cc(Cl)ccc2c2c(C(=O)N3CCCC3)nc(-c3ccncc3)nc21` gave a melting point of 256 to 258 °C.

On to `Cc1c(C)c2c(c(C)c1Br)C(c1ccccc1)CO2` (stereo not drawn), for which the melting point was in the range of 107 to 108 °C.

`Cc1cc(COc2nn(Cc3ccccc3)cc2C=O)ccc1OCc1nc(-c2ccco2)oc1C`: the melting point fell in the range of 121 to 122 °C.

For the compound `CCCn1nnc2c(C(N)=O)ncn2c1=O`, the melting point was 167 °C.

For `CC(=O)Oc1ccc(-c2c(C)c3ccc(OC(C)=O)cc3oc2=O)c(OC(C)=O)c1`, the melting point amounted to 145 °C.

As to `Cc1cc(C)c(P(C(C)(C)C)C(C)(C)C)c(C)c1`, the melting point fell in the range of 36 to 37 °C.

As for `Nc1n[nH]c(NC(=O)c2ccc3ccccc3c2)n1`, the melting point was 192 to 194 °C.

`CCOC(=O)C(Cc1c[nH]c2ccccc12)(NC=O)C(=O)OCC` came in with a melting point of 179 to 180 °C.

Take `OCc1nnc(-c2ccc3occ(-c4cccc(OC(F)(F)F)c4)c3c2)o1`: the melting point lay within 158 to 159 °C.

In turn, `CN1C(=O)N(N=Cc2cccnc2)Cc2cc(C(F)(C(F)(F)F)C(F)(F)F)ccc21` had a melting point of over 300 °C.

`CS(=O)(=O)c1ccc(-c2c(-c3ccc(O)cc3)[nH]c3ccc(Cl)cc23)cc1` registered a melting point of 271 to 273 °C.

With `O=C(NC(=S)NCCSCc1c[nH]cn1)c1ccccc1`, the melting point was 126 to 128 °C.

Take `Nc1ccc(Cl)cc1C(=O)NCCCn1ccnc1`: the melting point is 155 to 157 °C.

The compound `Cc1nnc2n1-c1sc(CCC(=O)O)cc1C(c1ccccc1Cl)=NC2C` (stereo not drawn) came in with a melting point of 202 to 204 °C.

`O=C(O)c1cnn2c(C(F)(F)F)cc(-c3ccc(F)c(F)c3)nc12` gave a melting point of 274 °C.

With `COC(=O)COc1c(C)cc(SCc2sc(-c3ccc(C(F)(F)F)cc3)nc2C)cc1C`, the melting point lay within 104 to 105 °C.

Take `O=C1NC(C(=O)N2CCN3C(=O)OC(c4ccccc4)(c4ccccc4)C3C2)c2ccccc21` (stereo not drawn): the melting point was in the range of 227 to 228 °C.

With `Cc1ccc(OC(C)C(=O)c2cc(C(C)(C)C)c(O)c(C(C)(C)C)c2)c(-n2nc3ccccc3n2)c1` (stereo not drawn), the melting point is 161 °C.

The compound `CCOCc1nc2c(N)nc3ccccc3c2n1CC1(O)CCN(C(=O)OCC)CC1` showed a melting point of 165 to 167 °C.

The compound `NC(=O)c1c(Cl)cn2c1CN(S(=O)(=O)c1ccc(-c3ccccn3)s1)CC2` gave a melting point of 213 to 214 °C.

With `CN(C)C(=O)c1ncccc1OC1SCC(O)C(O)C1O` (stereo not drawn), the melting point lay within 80 to 85 °C.

`COc1ccc(OC)c(OCCCCl)c1`: the melting point was 48 to 50 °C.

In the case of `Cc1nc(Nc2ccc(F)cc2)nc(N2CCc3ccccc3C2CO)c1C` (stereo not drawn), the melting point was 198 to 200 °C.

The compound `O=C1C(=O)c2ccc(-c3ccc(C(F)(F)F)cc3)cc2C2=C1SCC1(CCNCC1)O2` yielded a melting point of 190 to 240 °C.

The compound `CN(C)CCCOc1ccc(N(C(=O)c2ccc(F)cc2)c2ccccc2)cc1` had a melting point of 82.5 to 83.5 °C.

On to `O=C(Nc1ccc2ccc(Cl)nc2n1)C1=CSCCO1`, for which the melting point amounted to 270 °C.

On to `OCc1cc(OC2CCCC2)c(OC(F)F)cn1`, for which the melting point is 85 to 86 °C.

As for `C[Si](C)(C)C(CN)CC(=O)O` (stereo not drawn), the melting point was in the range of 199 to 201 °C.

In the case of `COC(=O)C(c1ccc(O)cc1)N1CC(N2C(=O)c3ccccc3C2=O)C1=O` (stereo not drawn), the melting point was in the range of 203 to 204 °C.

`CC(Br)=C(c1ccc(N(C)C)cc1)c1ccc(N(C)C)cc1`: the melting point was 119 to 122 °C.

As to `CCOC(=O)C(Sc1ccc(O)cc1)c1ccc(-c2cccs2)cc1` (stereo not drawn), the melting point came to 103 °C.

The compound `O=C1c2cccc3cccc(c23)C(=O)N1CCCCCO` gave a melting point of 96.5 to 97.5 °C.

Regarding `CCN(CC)c1ccc2c(c1)OC(=O)N(c1ccccc1)C2(c1ccc(N(C)C)cc1)c1ccc(N(C)C)cc1`, the melting point is 206 to 207 °C.

`COc1nc(C)nc(NC(=O)NS(=O)(=O)Cc2ccccc2-c2nnc(SC)o2)n1` returned a melting point of 175 to 177 °C.

On to `CCCCCCCCCCCCCCCCCCOc1cc(OCCCOc2ccccc2)cc(C(=O)OCc2ccccc2)c1`, for which the melting point fell in the range of 46 to 47 °C.

Regarding `NC(=O)c1ccc(Cn2ccc(OCc3ccc(F)cc3F)c(Cl)c2=O)cc1`, the melting point is 235 to 238 °C.

`Clc1ccc2nc(Cl)oc2c1` yielded a melting point of 40 to 44 °C.

As to `CCC(CC)c1ccc(Cl)c2nc3n(c12)CCCCN3c1ncc(C(F)(F)F)cc1Cl`, the melting point was 108 to 110 °C.

`C=CCCC(C#N)(C#N)Cc1ccc(OCC(F)(F)F)cc1` returned a melting point of 58 °C.

Consider `O=S(=O)(Cl)c1ccc(Cl)c(CCl)c1Cl`, for which the melting point was 68 °C.

`N#CC1c2ccccc2-c2ccccc21`: the melting point lay in the range of 152 to 154 °C.

Turning to `O=C1COc2ccccc2O1`, the melting point was in the range of 45 to 53 °C.

For `CCC(=C(c1ccccc1)c1ccc(C=CC(=O)N(CC)CC)cc1)c1ccccc1`, the melting point is 138 to 140 °C.

`COc1ccc(Nc2nc(NCCN)nc(NC3CCCCCC3)n2)cc1Cl` had a melting point of 77 °C.

As to `CN(c1cccc(C(F)(F)F)c1)c1nc2c(-c3cccc(C(=O)NCCO)c3)cccc2n1C`, the melting point lay in the range of 156 to 158 °C.

`CC(C)(C)OC(=O)NC1CCCCCC=CC2CC2(C(=O)NS(=O)(=O)C2CC2)NC(=O)C2CC(OC(=O)c3ccc4c(c3)OCO4)CN2C1=O` (stereo not drawn): the melting point is 153 to 155 °C.

On to `Nc1c(-c2ccc(Cl)cc2)nc2ccccc2c1C(=O)O`, for which the melting point lay in the range of 243 to 244 °C.

The compound `CC1(C)O[C@@H](CN=C2OCc3ccccc32)[C@H](CN=C2OCc3ccccc32)O1` registered a melting point of 204 °C.

In turn, `CCCN(C(=O)OCC(Cl)(Cl)Cl)C1CN(C(=O)Nc2ccc(C(F)(F)F)cc2)N=C1c1ccc(Cl)cc1` (stereo not drawn) showed a melting point of 172 to 173 °C.

In turn, `O=C(Nc1ccccc1O)c1ccc(OCCCCc2ccccc2)cc1` yielded a melting point of 116 to 117 °C.

In the case of `Nc1ncccc1OCc1ccccc1C(F)(F)F`, the melting point was 105 to 110 °C.

Regarding `O=c1ncc(C(F)(F)F)cn1COCc1ccc(Cl)cc1`, the melting point came to 120 °C.

In the case of `O=C(NC(Cc1ccc(OCc2ccc(F)cc2)cc1)C(=O)O)c1cn2ccc(-c3ccc(Cl)cc3)cc2n1` (stereo not drawn), the melting point is 255 to 257 °C.
